# Experimental data as given in BindingDB's records for doi:10.1021/jm0204441 (The Danish University of Pharmaceutical Sciences, 2003).
# Test: Electrophysiological data on Xenopus oocytes, expressing homomeric kainate receptor (GluR5)
smiles,measurement,value
CC(C)(C)c1s[nH]c(=O)c1C[C@H](N)C(=O)O [2-Amino-3-(5-tert-butyl-3-hydroxy-isothiazol-4-yl)-propionic acid],EC50,100 nM
